Source: patent US8524740B2, “Synthesis and anticancer activity of aryl and heteroaryl-quinolin derivatives” (Tairx, Inc., priority 2010, dated 2013)

Key:
[1] = tested on: Hep-3B human hepatocellular carcinoma xenograft; experiment: In vivo antitumor activity assay, Hep3B xenograft nude mice; set-up: species or system Balb/c Nude mice; details: for Hep3B tumor growth suppression compared with doxorubicin: 7.5 mg/kg/day p.o., doxorubicin 10 mg/kg p.o.; for antitumor activity by i.v. route compared with p.o. route: i.v., 7.5, 15, 30 mg/kg qd; for inhibition of Hep3B tumor growth (dose and time dependence): p.o., 7.5, 15, 30 mg/kg/day
Procedure: The Hep-3B tumor cell line was purchased from American Type Culture Collection (ATCC™HB-8064, human hepatocellular carcinoma cells). The culture medium contained DMEM, 90%; Fetal Bovine Serum, 10% and 1% penicillin-streptomycin. The tumor cells were incubated in an atmosphere containing 5% CO2 at 37° C.
Balb/c Nude mice used in this study were male, 4-6 weeks age, weighing 18-20 g and provided by National Animal Center. All animals were housed in Individually Ventilated Cages Racks (IVC Racks, 36 Mini Isolator system) under Specific Pathogen-Free (SPF) condition throughout the experiment. Each cage (in cm, 26.7 length×20.7 width×14.0 height) was sterilized with autoclave and contained 8 mice, and then the animals were maintained in a hygienic environment under controlled temperature (20-24° C.) and humidity (40%-70%) with 12 hour light/dark cycle. The animals were given free access to sterilized lab chow and sterilized distilled water ad libilum. All aspects of this work, i.e., housing, experimentation and disposal of animals were performed in general accordance with the Guide for the Care and Use of Laboratory Animals (National Academy Press, Washington, D.C., 1996).
(§1) In the xenotraft tumor model of human hepatocellular carcinoma cell lines (Hep-3B, ATCC HB-8064) in male Balb/c Nude mice, the compounds 49 at doses at 7.5, 15 and 30 mg/kg (i.v. or p.o., bid) was administered five days per week for four consecutive weeks by p.o, or i.v. and ceased at Day 28. The compounds 52 at doses at 7.5, 15 and 30 mg/kg (i.v. or p.o., qd) was administered five days per week for four consecutive weeks and ceased at Day 28. The tumor size, body weight was monitored and recorded for 28 days. Human hepatocellular carcinoma cells (HEP-3B ATCC HB-8064) with 2×10^6 cells in 0.1 ml were injected subcutaneously into the right flank of the mice. When the tumor growth reached >100 mm^3 in volume (assumed as day 0), the tumor-bearing animals were assigned into several groups (8 animals in each group) for study.
(§2) The body weight and tumor size were measured and recorded every 7 days during the experimental periods of 28 days. Tumor volume (mm^3) was estimated according to the formula of length×[…]×0.5 in mm^3. Tumor growth inhibition was calculated as T/C (treatment/control) by the following formula: T/C=(Tn−T0)/(Cn−C0)×100% (T0: Tumor volume of treated group in Day 0; Tn: Tumor volume of treated group in Day n; C0: Tumor volume of control group in Day 0; Cn: Tumor volume of control group in Day n).
The Hep-3B tumor cell line was purchased from American Type Culture Collection (ATCC HB-8064, human hepatocellular carcinoma cells). A culture medium of 90% DMEM, 10% Fetal Bovine Serum, supplemented with 1% penicillin-streptomycin, was used. The tumor cells were incubated in an atmosphere containing 5% CO2 at 37° C.
Balb/c Nude mice used in this stud were male, 4-6 weeks age, weighing 18-20 g and provided by National Animal Center. All animals were housed in individually ventilated cages racks (IVC Racks, 36 Mini Isolator system) under specific pathogen-free (SPF) conditions throughout the experiment. Each cage (in cm, 26.7 length×20.7 width×14.0 height) was sterilized with autoclave and contained eight mice. The animals were maintained in a hygienic environment under controlled temperature (20-24° C.) and humidity (40% -70%) with a 12 hour light/dark cycle. The animals were given free access to sterilized lab chow and sterilized distilled water ad libitum. All aspects of this work, i.e., housing, experimentation and disposal of animals, were performed in general accordance with the Guide for the Care and Use of Laboratory Animals (National Academy Press, Washington, D.C., 1996). […]

[2] = Body weight monitoring in Hep3B xenograft nude mice; assay type: in vivo, Balb/c Nude mice; details: during the course of antitumor evaluation (28 days)
Procedure: as §1, §2
In the xenograft tumor model of human hepatocellular carcinoma cell lines (Hep-3B, ATCC HB-8064) in male Balb/c Nude mice, compound 147 prepared in 9% (w/v) NaHCO3 solution at doses of 7.5, 15 and 30 mg/kg -i.v.or p.o., qd) was administered five days per week for four consecutive weeks and ceased at Day 28. The tumor size and body weight were monitored and recorded for 28 days. Human hepatocellular carcinoma cells (HEP-3,ATCC HB-8064) with 2 ×10^6 cells in 0.1 mL were injected subcutaneously into the right flank of the mice. […]
The body weight and tumor size were measured and recorded every seven days during the experiment periods of 28 days. […]

[3] = tested on: HL-60; experiment: MTT assay, HL-60 cells; assay type: cell-based; details: Homo sapiens
Procedure: (§3) MTT (3-(4,5-Dimethylthiazol-2-yl)-2,5-diphenyltetrazolium bromide) assays.^21,22 HL-60, HCT-116, Hep 3B, H460, Detroit 551 and HT29/FuR cells were treated with tested compounds for the indicated periods. After treatment, cells were washed once with PBS and incubated with MTT (Sigma, St. Louis, Mo., USA) for 2 h. The formazan precipitate was dissolved in 150 μL of DMSO, and the absorbance was measured with an ELISA reader at 570 nm.
(§4) HL-60, Hep 3B, H460, MES-SA, MES-SAID x5 and Detroit 551 cells were treated with vehicle or test compounds for 48 h. The cell growth rate was determined by MTT (3-(4,5-dimethyl-thiazol-2-yl)-2,5-diphenyltetrazoliun bromide) reduction assay.
as §3, with “assays.” for “assays.^21,22”, “HCT-116, A549,” for “HCT-116,”, “KB, Kb-VIN” for “H460, Detroit 551”, “DU145” for “HT29/FuR”
as §3, with “assays.” for “assays.^21,22”, “HL-60,” for “HL-60, HCT-116,”, “H460, A498, Colo205 and” for “H460,”, “551” for “551 and HT29/FuR”

[4] = tested on: HCT116; experiment: MTT assay, HCT-116 cells; assay type: cell-based; details: Homo sapiens
Procedure: as §3
as §3, with “assays.” for “assays.^21,22”, “HCT-116, A549,” for “HCT-116,”, “KB, Kb-VIN” for “H460, Detroit 551”, “DU145” for “HT29/FuR”

[5] = tested on: Hep3B; experiment: MTT assay, Hep 3B cells; assay type: cell-based; details: Homo sapiens
Procedure: as §3, §4
as §3, with “assays.” for “assays.^21,22”, “HCT-116, A549,” for “HCT-116,”, “KB, Kb-VIN” for “H460, Detroit 551”, “DU145” for “HT29/FuR”
as §3, with “assays.” for “assays.^21,22”, “HL-60,” for “HL-60, HCT-116,”, “H460, A498, Colo205 and” for “H460,”, “551” for “551 and HT29/FuR”

[6] = tested on: H460; experiment: MTT assay, H460 cells; assay type: cell-based; details: Homo sapiens, NCI-H460
Procedure: as §3, §4
as §3, with “assays.” for “assays.^21,22”, “HL-60,” for “HL-60, HCT-116,”, “H460, A498, Colo205 and” for “H460,”, “551” for “551 and HT29/FuR”

[7] = tested on: Detroit 551; experiment: MTT assay, Detroit 551 normal human cells; assay type: cell-based; details: Detroit 551
Procedure: as §3, §4
as §3, with “assays.” for “assays.^21,22”, “HL-60,” for “HL-60, HCT-116,”, “H460, A498, Colo205 and” for “H460,”, “551” for “551 and HT29/FuR”

[8] = oral and intravenous administration (CHM-2133-P); cited from earlier work
[9] = tested on: A549; experiment: MTT assay, A549 cells; assay type: cell-based; details: Homo sapiens, Table 5
Procedure: as §3, with “assays.” for “assays.^21,22”, “HCT-116, A549,” for “HCT-116,”, “KB, Kb-VIN” for “H460, Detroit 551”, “DU145” for “HT29/FuR”

[10] = tested on: KB; experiment: MTT assay, KB cells; assay type: cell-based; details: Homo sapiens, Table 5
Procedure: as §3, with “assays.” for “assays.^21,22”, “HCT-116, A549,” for “HCT-116,”, “KB, Kb-VIN” for “H460, Detroit 551”, “DU145” for “HT29/FuR”

[11] = tested on: Kb-VIN; experiment: MTT assay, Kb-VIN cells; assay type: cell-based; details: Homo sapiens, KBVIN, Table 5
Procedure: as §3, with “assays.” for “assays.^21,22”, “HCT-116, A549,” for “HCT-116,”, “KB, Kb-VIN” for “H460, Detroit 551”, “DU145” for “HT29/FuR”

[12] = tested on: DU145; experiment: MTT assay, DU145 cells; assay type: cell-based; details: Homo sapiens, DU-145, Table 5
Procedure: as §3, with “assays.” for “assays.^21,22”, “HCT-116, A549,” for “HCT-116,”, “KB, Kb-VIN” for “H460, Detroit 551”, “DU145” for “HT29/FuR”

[13] = tested on: MES-SA; experiment: MTT assay, MES-SA cells; assay type: cell-based; details: Homo sapiens, Table 3, B-2 series, 48 hrs
Procedure: as §4

[14] = tested on: MES-SA/Dx5; experiment: MTT assay, MES-SA/Dx5 cells; assay type: cell-based, human; details: Table 3, B-2 series; for IC50: Homo sapiens, MES-SA/Dx5, 48 hrs; for Ratio Of SA/Dx5: IC50 MES-SA/Dx5 over IC50 MES-SA
Procedure: as §4

[15] = previous report; cited from earlier work
[16] = Homo sapiens, Table 3, B-2 series, 48 hrs

COc1ccc2nc(-c3cccc(F)c3)cc(OP(=O)(O)O)c2c1OP(=O)(O)O [Compound 49, 2-(3-Fluorophenyl)-6-methoxyquinoline-4,5-diyl bis(dihydrogen phosphate)]
antitumor activity compared with doxorubicin ([1]; 7.5 mg/kg i.v. or p.o., bid, doxorubicin 5 mg/kg i.v. qd, 10 mg/kg p.o. qd): exceeded that of doxorubicin | antitumor activity (dose and time dependence) ([1]; 7.5, 15 and 30 mg/kg, i.v. or p.o., bid, five days per week for four weeks): dose- and time-dependent manner | body weight changes [2]: no significant body weight changes

O=c1cc(-c2ccccc2F)[nH]c2cc3c(cc12)OCO3 [CHM-2133, 2-(2-fluorphenyl)-6,7-methylenedioxyquinolin-4-one, reference compound]
IC50 ([3]; Table 1, 48 h, MTT): 80 nM | IC50 ([4]; Table 1, 48 h): 150 nM | IC50 ([5]; Table 1, 48 h, MTT): 130 nM | IC50 ([6]; Table 1, 48 h, MTT): 140 nM | IC50 ([7]; Table 1, 48 h, MTT, normal human cell): 8200 nM | antitumor activity in vivo (earlier work) [8]: excellent antitumor activity

O=c1cc(-c2cccc(OP(=O)(O)O)c2)[nH]c2ccc(N3CCCC3)cc12 [Compound 147, 3-(4-Oxo-6-(pyrrolidin-1-yl)-1,4-dihydroquinolin-2-yl)phenyl dihydrogen phosphate]
Hep3B tumor growth suppression compared with doxorubicin [1]: exceed that of 10 mg/kg doxorubicin | weight of Hep3B tumor relative to control ([1]; 30 mg/kg p.o., % of that of the control): 26.3% | antitumor activity by i.v. route compared with p.o. route [1]: slightly greater activity | inhibition of Hep3B tumor growth (dose and time dependence) [1]: dose- and time-dependent inhibition | body weight changes [2]: no significant body weight changes

O=c1cc(-c2cccc3ccccc23)[nH]c2cc3c(cc12)OCO3 [Compound 151, 2-(1-Naphthalenyl)-6,7-methylenedioxyquinolin-4-one]
IC50 ([3]; Table 5, MTT): 70 nM | IC50 ([4]; Table 5): 70 nM | IC50 ([5]; Table 5, MTT): 70 nM | IC50 [9]: 130 nM | IC50 [10]: 130 nM | IC50 [11]: 190 nM | IC50 [12]: 130 nM

O=C1CC(c2cccc(O)c2)=Nc2ccc(N3CCCC3)cc21 [Compound 138, 2-(3-Hydroxyphenyl)-6-pyrrolidinoquinolin-4-one]
IC50 ([3]; Table 3, B-2 series, 48 hrs): 9 nM | IC50 ([5]; Table 3, B-2 series, 48 hrs): 280 nM | IC50 ([6]; Table 3, B-2 series, 48 hrs): 400 nM | IC50 [7, 16]: 1390 nM | IC50 [13]: 734 nM | IC50 [14]: 320 nM | Ratio Of SA/Dx5 [14]: 0.23 | melting point: 364 to 367 °C

O=C1CC(c2cccc3c2OCO3)=Nc2ccc(N3CCCC3)cc21 [Compound 125, 2-(Benzo[d][1,3]-dioxol-4-yl)-6-pyrrolidinoquinolin-4-one]
IC50 ([3]; Table 3, B-2 series, 48 hrs): 80 nM | IC50 ([5]; Table 3, B-2 series, 48 hrs): 200 nM | IC50 ([6]; Table 3, B-2 series, 48 hrs): 200 nM | IC50 [7, 16]: > 2500 nM | IC50 [13]: 100 nM | IC50 [14]: 183 nM | Ratio Of SA/Dx5 [14]: 1.83 | melting point: 330 to 332 °C

COc1ccc2[nH]c(-c3cccc(F)c3)cc(=O)c2c1OP(=O)(O)O [Compound 52, 2-(3-Fluorophenyl)-6-methoxy-4-oxo-1,4-dihydroquinolin-5-yl dihydrogen phosphate]
Hep3B tumor growth suppression compared with doxorubicin [1]: Significant tumor growth suppression | tumor suppression ([1]; 30 mg/kg/day oral dosing): Near complete tumor suppression | antitumor activity by i.v. route compared with p.o. route [1]: slight better antitumor activity | inhibition of Hep3B tumor growth (dose and time dependence) [1]: dose- and time-dependent inhibition | body weight changes [2]: no significant body weight changes

O=c1cc(-c2coc3ccccc23)[nH]c2cc3c(cc12)OCO3 [Compound 156, 2-(3-Benzo[b]furyl)-6,7-methylenedioxyquinolin-4-one]
IC50 ([3]; Table 5, MTT): 30 nM | IC50 ([4]; Table 5): 50 nM | IC50 ([5]; Table 5, MTT): 90 nM | IC50 [9]: 2980 nM | IC50 [10]: 1050 nM | IC50 [11]: 590 nM | IC50 [12]: 1870 nM

O=P(O)(O)Oc1cc(-c2ccccc2F)nc2cc3c(cc12)OCO3 [CHM-2133-P]
antitumor activity in vivo (earlier work) [8]: excellent antitumor activity | bio-conversion following administration [15]: rapid bio-conversion into its active molecule CHM-2133
